Results as given in ChEMBL document CHEMBL6096698, “Discovery of a Selective and Orally Bioavailable RET Degrader with Effectiveness in Various Mutations” (J Med Chem, 2025).

Columns and labels:
BaF3 [1] = test: Antiproliferative activity against mouse BaF3 cells stably expressing KIF5B-RET G810S mutant incubated for 72 hrs by CCK8 assay; type: functional, cell-based; details: BaF3, 72 h
BaF3 [2] = test: PROTAC activity at CRBN/KIF5B-RET (unknown origin) expressed in mouse BaF3 cells assessed as induction of RET degradation at 10 nM incubated for 24 hrs by immunoblot analysis relative to control; type: cell-based
BaF3 [3] = test: Antiproliferative activity against mouse BaF3 cells stably expressing KIF5B-RET incubated for 72 hrs by CCK8 assay; type: functional, cell-based; details: BaF3, 72 h
BaF3 [4] = test: Antiproliferative activity against mouse BaF3 cells stably expressing KIF5B-RET G810R mutant incubated for 72 hrs by CCK8 assay; type: functional, cell-based; details: BaF3, 72 h
BaF3 [5] = test: Antiproliferative activity against mouse BaF3 cells stably expressing KIF5B-RET G810C mutant incubated for 72 hrs by CCK8 assay; type: functional, cell-based; details: BaF3, 72 h
BaF3 [6] = test: Antiproliferative activity against mouse BaF3 cells stably expressing KIF5B-RET V804M mutant incubated for 72 hrs by CCK8 assay; type: functional, cell-based; details: BaF3, 72 h
[7] = target: Proto-oncogene tyrosine-protein kinase receptor Ret (Homo sapiens, UniProt P07949); test: Inhibition of RET (unknown origin) preincubated for 10 mins followed by substrate/ATP addition measured after 30 mins by HTRF assay
BaF3 [8] = test: Induction of degradation of KIF5B-RET (unknown origin) expressed in mouse BaF3 cells at 10 nM incubated for 24 hrs by immunoblot analysis relative to control; type: cell-based; details: Homo sapiens
BaF3 [9] = test: PROTAC activity at VHL/KIF5B-RET (unknown origin) expressed in mouse BaF3 cells assessed as induction of RET degradation at 10 nM incubated for 24 hrs by immunoblot analysis relative to control; type: cell-based

Chain of Proto-oncogene tyrosine-protein kinase receptor Ret (P07949 whole entry): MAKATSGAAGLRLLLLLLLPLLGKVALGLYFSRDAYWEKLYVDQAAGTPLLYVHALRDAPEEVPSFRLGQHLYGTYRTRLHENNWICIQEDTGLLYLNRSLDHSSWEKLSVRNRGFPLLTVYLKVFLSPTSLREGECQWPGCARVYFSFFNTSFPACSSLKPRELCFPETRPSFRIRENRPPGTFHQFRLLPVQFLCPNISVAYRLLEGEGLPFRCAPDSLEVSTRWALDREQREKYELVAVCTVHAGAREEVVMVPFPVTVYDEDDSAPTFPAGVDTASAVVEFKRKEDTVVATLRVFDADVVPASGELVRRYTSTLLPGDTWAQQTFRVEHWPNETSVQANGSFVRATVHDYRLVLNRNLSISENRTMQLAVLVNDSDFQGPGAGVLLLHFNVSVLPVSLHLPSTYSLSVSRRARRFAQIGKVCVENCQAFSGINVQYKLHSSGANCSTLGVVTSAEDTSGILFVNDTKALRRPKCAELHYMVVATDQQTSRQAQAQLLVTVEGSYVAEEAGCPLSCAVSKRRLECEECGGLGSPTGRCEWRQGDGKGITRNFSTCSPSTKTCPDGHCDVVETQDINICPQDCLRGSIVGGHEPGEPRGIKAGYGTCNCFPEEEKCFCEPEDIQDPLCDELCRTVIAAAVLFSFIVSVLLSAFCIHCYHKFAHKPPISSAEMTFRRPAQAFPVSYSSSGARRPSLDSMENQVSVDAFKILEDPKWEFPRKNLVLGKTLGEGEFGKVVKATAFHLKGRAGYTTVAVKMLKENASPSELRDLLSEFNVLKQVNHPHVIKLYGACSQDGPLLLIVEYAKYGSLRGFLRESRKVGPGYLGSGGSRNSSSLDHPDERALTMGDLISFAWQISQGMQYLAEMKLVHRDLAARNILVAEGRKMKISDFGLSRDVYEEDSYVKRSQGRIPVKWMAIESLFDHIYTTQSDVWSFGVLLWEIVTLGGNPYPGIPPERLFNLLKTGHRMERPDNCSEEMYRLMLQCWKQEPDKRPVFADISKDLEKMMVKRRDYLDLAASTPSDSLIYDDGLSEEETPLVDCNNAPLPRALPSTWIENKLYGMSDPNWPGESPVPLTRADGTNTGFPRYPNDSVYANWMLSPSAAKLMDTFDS

Structure (SMILES)	IC50 (BaF3 [1]) [nM]	IC50 (BaF3 [3]) [nM]	IC50 (BaF3 [4]) [nM]	IC50 (BaF3 [5]) [nM]	IC50 (BaF3 [6]) [nM]	IC50 [7] [nM]	Activity (BaF3 [2]) [%]	Activity (BaF3 [8]) [%]	Activity (BaF3 [9]) [%]
COc1ccc(CN2C3CC2CN(c2ccc(-c4cc(N5CCN(C(=O)CCCCCCCNc6cccc7c6C(=O)N(C6CCC(=O)NC6=O)C7=O)CC5)cn5ncc(C#N)c45)cn2)C3)cn1 (stereo unspecified)	62.1	1.6	453	126	13.7	0.203	73		
COc1ccc(CN2C3CC2CN(c2ccc(-c4cc(N5CCN(CCCCCCCCC(=O)N[C@H](C(=O)N6C[C@H](O)C[C@H]6C(=O)N[C@@H](C)c6ccc(-c7scnc7C)cc6)C(C)(C)C)CC5)cn5ncc(C#N)c45)cn2)C3)cn1	674	14.2	1880	522	108				38
COc1ccc(CN2C3CC2CN(c2ccc(-c4cc(N5CCN(C(=O)CCCCCCCCCCC(=O)N[C@H](C(=O)N6C[C@H](O)C[C@H]6C(=O)N[C@@H](C)c6ccc(-c7scnc7C)cc6)C(C)(C)C)CC5)cn5ncc(C#N)c45)cn2)C3)cn1	552	35.4	1330	818	85.3				24
COc1ccc(CN2C3CC2CN(c2ccc(-c4cc(N5CCN(CCC(=O)N[C@H](C(=O)N6C[C@H](O)C[C@H]6C(=O)N[C@@H](C)c6ccc(-c7scnc7C)cc6)C(C)(C)C)CC5)cn5ncc(C#N)c45)cn2)C3)cn1	723	86.8	> 5000	254	126				29
COc1ccc(CN2C3CC2CN(c2ccc(-c4cc(N5CCN(C(=O)CCCCCCC(=O)N[C@H](C(=O)N6C[C@H](O)C[C@H]6C(=O)N[C@@H](C)c6ccc(-c7scnc7C)cc6)C(C)(C)C)CC5)cn5ncc(C#N)c45)cn2)C3)cn1	> 5000	177	> 5000	> 5000	372				17

Now from value to molecule, other results behind:

IC50 (BaF3 [1]) [nM]	IC50 (BaF3 [3]) [nM]	IC50 (BaF3 [4]) [nM]	IC50 (BaF3 [5]) [nM]	IC50 (BaF3 [6]) [nM]	IC50 [7] [nM]	Structure (SMILES)	Activity (BaF3 [2]) [%]	Activity (BaF3 [8]) [%]	Activity (BaF3 [9]) [%]
53.6	1.8	376	50.4	5.2	0.329	COc1ccc(CN2C3CC2CN(c2ccc(-c4cc(N5CCC(N6CCN(C(=O)CCCCCNc7cccc8c7C(=O)N(C7CCC(=O)NC7=O)C8=O)CC6)CC5)cn5ncc(C#N)c45)cn2)C3)cn1 (stereo unspecified)	72		
113	4.3	724	156	42.9		COc1ccc(CN2C3CC2CN(c2ccc(-c4cc(N5CCC(N6CCNCC6)CC5)cn5ncc(C#N)c45)cn2)C3)cn1		0	
52.6	2.8	1110	322	8.1	0.215	COc1ccc(CN2C3CC2CN(c2ccc(-c4cc(N5CCN(C6CN(c7ccc8c(c7)C(=O)N(C7CCC(=O)NC7=O)C8=O)C6)CC5)cn5ncc(C#N)c45)cn2)C3)cn1 (stereo unspecified)	71		
35.7	1.9	1030	145	11.5	0.227	COc1ccc(CN2C3CC2CN(c2ccc(-c4cc(N5CCN(CC6CN(c7ccc8c(c7)C(=O)N(C7CCC(=O)NC7=O)C8=O)C6)CC5)cn5ncc(C#N)c45)cn2)C3)cn1 (stereo unspecified)	72		
78.3	2.9	552	182	13.1	0.391	COc1ccc(CN2C3CC2CN(c2ccc(-c4cc(N5CCC(N6CCN(C(=O)CCCCCNc7ccc8c(c7)C(=O)N(C7CCC(=O)NC7=O)C8=O)CC6)CC5)cn5ncc(C#N)c45)cn2)C3)cn1 (stereo unspecified)	61		
176	16.5	1210	1320	178		COc1ccc(CN2C3CC2CN(c2ccc(-c4cc(N5CCN(C(=O)CNc6ccc7c(c6)C(=O)N(C6CCC(=O)NC6=O)C7=O)CC5)cn5ncc(C#N)c45)cn2)C3)cn1 (stereo unspecified)	40		
